Paper PMC10615177 (ACS infectious diseases, 2023)
≈ marks a conversion by molar mass, not a printed value. Like-named read-outs stand apart in the source and are kept apart here.

Assays:
[1] = tested on: T. brucei bloodstream forms; assay: T. brucei bloodstream form growth inhibition; format: cell-based, Trypanosoma brucei; settings: Trypanosoma brucei, read-out: T. brucei IC50
[2] = tested on: M. tuberculosis HN878; assay: M. tuberculosis HN878 growth inhibition; format: cell-based, Mycobacterium tuberculosis; settings: Mycobacterium tuberculosis; for IC50: HN878, read-out: Mtb HN878 IC50, dose-response curves; for MIC: HN878, read-out: Mtb HN878 MIC
[3] = in vitro; settings: human
[4] = tested on: M. tuberculosis H37Rv; assay: M. tuberculosis H37Rv growth inhibition; format: cell-based, Mycobacterium tuberculosis; settings: Mycobacterium tuberculosis, H37RV, read-out: Mtb H37Rv MIC
[5] = in vitro; settings: human; remark: listed apart in the source
[6] = biological target: M. tuberculosis MmpL3 (MtMmpL3) (Mycobacterium tuberculosis, UniProt P9WJV5); assay: Surface plasmon resonance binding to MmpL3
M. tuberculosis MmpL3 (MtMmpL3), sequence (P9WJV5 whole entry): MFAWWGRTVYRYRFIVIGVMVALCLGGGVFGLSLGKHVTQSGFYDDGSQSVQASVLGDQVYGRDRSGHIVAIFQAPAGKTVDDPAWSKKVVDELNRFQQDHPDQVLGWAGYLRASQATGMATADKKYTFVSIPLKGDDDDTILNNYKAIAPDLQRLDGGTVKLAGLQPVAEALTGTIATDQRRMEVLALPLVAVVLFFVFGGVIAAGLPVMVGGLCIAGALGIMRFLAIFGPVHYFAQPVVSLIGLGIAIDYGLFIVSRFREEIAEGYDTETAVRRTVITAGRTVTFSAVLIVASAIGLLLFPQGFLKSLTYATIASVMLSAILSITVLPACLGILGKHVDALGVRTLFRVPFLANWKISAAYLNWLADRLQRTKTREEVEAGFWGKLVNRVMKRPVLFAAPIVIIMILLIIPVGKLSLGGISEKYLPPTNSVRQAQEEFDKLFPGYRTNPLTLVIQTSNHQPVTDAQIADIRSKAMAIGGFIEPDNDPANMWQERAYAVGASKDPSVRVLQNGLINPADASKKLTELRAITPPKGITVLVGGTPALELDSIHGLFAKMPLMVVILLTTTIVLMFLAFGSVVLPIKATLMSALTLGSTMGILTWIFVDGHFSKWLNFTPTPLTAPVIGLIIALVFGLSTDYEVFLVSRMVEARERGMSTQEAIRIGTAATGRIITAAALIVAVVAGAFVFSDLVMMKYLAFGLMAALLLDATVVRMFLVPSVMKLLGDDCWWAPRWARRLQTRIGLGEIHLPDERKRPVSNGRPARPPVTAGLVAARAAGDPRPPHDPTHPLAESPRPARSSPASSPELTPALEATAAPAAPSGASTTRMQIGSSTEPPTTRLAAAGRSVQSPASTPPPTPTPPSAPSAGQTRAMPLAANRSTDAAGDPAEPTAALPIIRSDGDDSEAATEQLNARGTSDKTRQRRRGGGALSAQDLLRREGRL

[7] = tested on: T. cruzi Dm28c epimastigotes; assay: T. cruzi epimastigote growth inhibition; format: cell-based, Trypanosoma cruzi; settings: Trypanosoma cruzi, read-out: T. cruzi IC50 (EPI)
[8] = tested on: M. tuberculosis Erdman; assay: M. tuberculosis Erdman growth inhibition; format: cell-based, Mycobacterium tuberculosis; settings: Mycobacterium tuberculosis, ERDMAN, read-out: Mtb Erdman MIC
[9] = tested on: T. cruzi Dm28c intracellular amastigotes; assay: T. cruzi intracellular amastigote inhibition; format: cell-based, Trypanosoma cruzi; settings: Trypanosoma cruzi, U2OS, read-out: T. cruzi IC50 (PAR)
[10] = tested on: L. mexicana promastigotes; assay: L. mexicana promastigote growth inhibition; format: cell-based, Leishmania mexicana; settings: Leishmania mexicana, read-out: L. mexicana IC50, promastigotes
[11] = tested on: L. donovani promastigotes; assay: L. donovani promastigote growth inhibition; format: cell-based, Leishmania donovani; settings: Leishmania donovani, read-out: L. donovani IC50
[12] = tested on: E. coli; assay: E. coli growth inhibition; format: cell-based, Escherichia coli
[13] = tested on: M. smegmatis; assay: M. smegmatis cell growth inhibition; format: cell-based, Mycobacterium smegmatis
[14] = tested on: Plasmodium falciparum asexual blood stages; assay: P. falciparum asexual blood stage; format: cell-based; settings: Plasmodium falciparum, read-out: PfABS IC50 (μM ± S.E.), asexual blood stages
[15] = tested on: Bacillus subtilis; assay: B. subtilis growth inhibition; format: cell-based; settings: Bacillus subtilis, read-out: Bs IC50
[16] = tested on: M. abscessus smooth variant; assay: microbe, parasite or virus in culture; format: cell-based
[17] = tested on: M. abscessus rough variant; assay: microbe, parasite or virus in culture; format: cell-based
[18] = KD, 1:1 model, 1:1 binding model, from ratio of rate constants
[19] = KD, 2-state, two-state model, from rate constants
[20] = Mycolicibacterium smegmatis, read-out: Ms IC50, M. smegmatis

Row | Compound | IC50 [1] [µM] | IC50 [2] [µM] | MIC [2] [µM] | viability at 20 µM [3] [%] | MIC [4] [µM] | CC50 [5] [µM] | ka1 ([6]; two-state model) [M⁻¹ s⁻¹] | ka2 ([6]; two-state model) [s⁻¹] | kd1 ([6]; two-state model) [s⁻¹] | kd2 ([6]; two-state model) [s⁻¹] | IC50 [7] [µM] | MIC [8] [µM] | IC50 [9] [µM] | IC50 [10] [µM] | IC50 [11] [µM] | Ec IC50 [12] | IC50 [13, 20] [µM] | IC50 [14] [µM] | IC50 [15] [µM] | other results
1 | CC(C)=CCCC(C)=CCNC(=O)CNC1(C)C2CC3CC(C2)CC1C3 (stereo not shown) [Compound 14b, N-(3,7-dimethylocta-2,6-dien-1-yl)-2-((2-methyl-2-adamantanyl)amino)acetamide] | 6.6 ± 0.03 | 4.9 ± 0.1 | 6.25 (≈ 2.24 µg/mL) | 94 | 30 (≈ 10.8 µg/mL) | 7.2 ± 0.9 | 1917 | 0.009268 | 1.363 | 0.02741 | 18 ± 4 | 20 (≈ 7.17 µg/mL) | 2.3 ± 0.2 | 2.4 ± 0.7 | 11 ± 0.9 | No inhibition | 9 | 6.47 ± 0.65 | – | koff [6]: 0.751 s⁻¹; kon [6]: 1760 M⁻¹ s⁻¹; Kd [6, 18]: 426 µM; Kd [6, 19]: 531 µM
2 | CC(C)=CCCC(C)=CCNCC(=O)NC1(c2ccccc2)C2CC3CC(C2)CC1C3 (stereo not shown) [Compound 7h, 2-((3,7-Dimethylocta-2,6-dien-1-yl)amino)-N-(2-phenyladamantan-2-yl)acetamide] | 4.1 ± 0.6 | – | – | – | 38 (≈ 16 µg/mL) | 7 ± 0.4 | – | – | – | – | 18 ± 2 | 38 (≈ 16 µg/mL) | 3.4 ± 0.2 | – | 26 ± 28 | No inhibition | 26 | – | 4.5 | –
3 | CC(C)=CCCC(C)=CCNCC(=O)NC(C)(C)C12CC3CC(CC(C3)C1)C2 [Compound 11, N-(2-(adamantan-1-yl)propan-2-yl)-2-((3,7-dimethylocta-2,6-dien-1-yl)amino)acetamide] | 6.2 ± 0.2 | 13 ± 2 | 12.5 (≈ 4.83 µg/mL) | 100 | 19 (≈ 7.35 µg/mL) | 6.9 ± 0.1 | – | – | – | – | 16 ± 4 | 19 (≈ 7.35 µg/mL) | 4.4 ± 0.3 | 5.2 ± 0.2 | 5 ± 0.6 | No inhibition | 44 ± 4 | 7.63 ± 1.13 | – | –
4 | CC(C)=CCCC(C)=CCNC(=O)CNC(C)(C)C12CC3CC(CC(C3)C1)C2 [Compound 15, 2-((2-(Adamantan-1-yl)propan-2-yl)amino)-N-(3,7-dimethylocta-2,6-dien-1-yl)acetamide] | 5.9 ± 0.1 | 17 ± 6 | 12.5 (≈ 4.83 µg/mL) | 76 | 38 (≈ 14.7 µg/mL) | 7.1 ± 0.5 | – | – | – | – | 15 ± 3 | 38 (≈ 14.7 µg/mL) | 2.6 ± 0.1 | 5 ± 0.1 | 12 ± 8 | No inhibition | 31 ± 3 | 5.44 ± 0.32 | – | viability at 2 µM [3]: 91%
5 | CC(C)=CCCC(C)=CCNCC(=O)NC1(Cc2ccccc2)C2CC3CC(C2)CC1C3 (stereo not shown) [Compound 7g, 2-((3,7-Dimethylocta-2,6-dien-1-yl)amino)-N-(2-benzyladamantan-2-yl)acetamide] | 5.6 ± 1 | – | – | – | 29 (≈ 12.6 µg/mL) | 7 ± 0.2 | – | – | – | – | 17 ± 4 | 29 (≈ 12.6 µg/mL) | 2.9 ± 0.3 | – | 27 ± 0.8 | No inhibition | 17 | – | 2.3 | –
6 | CCC1(NC(=O)CNCC=C(C)CCC=C(C)C)C2CC3CC(C2)CC1C3 (stereo not shown) [Compound 7c, 2-((3,7-Dimethylocta-2,6-dien-1-yl)amino)-N-(2-ethyladamantan-2-yl)acetamide] | 3.9 ± 0.3 | 6.6 ± 0.2 | 6.25 (≈ 2.33 µg/mL) | – | 16 (≈ 5.96 µg/mL) | 7.5 ± 0.6 | – | – | – | – | 14 ± 0.04 | 16 (≈ 5.96 µg/mL) | 3.2 ± 0.2 | – | 44 ± 11 | No inhibition | 7.7 | – | 1.9 | –
7 | CCCCC1(NC(=O)CNCC=C(C)CCC=C(C)C)C2CC3CC(C2)CC1C3 (stereo not shown) [Compound 7e, 2-((3,7-Dimethylocta-2,6-dien-1-yl)amino)-N-(2-butyladamantan-2-yl)acetamide] | 3 ± 0.2 | 13 ± 0.3 | 12.5 (≈ 5.01 µg/mL) | – | 15 (≈ 6.01 µg/mL) | 15 ± 0.5 | – | – | – | – | 48 ± 0.07 | 15 (≈ 6.01 µg/mL) | 8.8 ± 1.3 | – | 25 ± 14 | No inhibition | 17 | – | 2.8 | –
8 | CC(C)=CCCC(C)=CCNCCNC1(c2ncc(-c3ccccc3)s2)C2CC3CC(C2)CC1C3 (stereo not shown) [Compound 8i, N-(3,7-dimethylocta-2,6-dien-1-yl)-N´-(2-(5-phenylthiazol-2-yl)adamantan-2-yl)ethane-1,2-diamine] | – | – | – | – | – | – | 3946 | 0.006253 | 0.434 | 0.03057 | – | – | – | – | – | – | – | – | – | Ma(S) MIC [16]: 21.5 µM; koff ([6]; 1:1 Langmuir binding model): 0.4902 s⁻¹; Kd ([6]; read-out: KD, 1:1 model, 1:1 binding model, from ratio of rate constants): 87 µM; Kd ([6]; read-out: KD, 2-state, two-state model, from rate constants): 91 µM; Ma(R) MIC [17]: 21.5 µM; IC50 ([13]; read-out: Ms IC50, M. smegmatis): 21 µM
9 | CCCC1(NCC(=O)NCC=C(C)CCC=C(C)C)C2CC3CC(C2)CC1C3 (stereo not shown) [Compound 14d, N-(3,7-dimethylocta-2,6-dien-1-yl)-2-((2-propyladamantan-2-yl)amino)acetamide] | 2.3 ± 0.1 | > 25 | 25 (≈ 9.67 µg/mL) | 100 | 32 (≈ 12.4 µg/mL) | 9.1 ± 0.4 | 3277 | 0.005907 | 1.04 | 0.03103 | 14 ± 5 | 32 (≈ 12.4 µg/mL) | 2.8 ± 0.3 | 0.73 ± 0.2 | 8.4 ± 2 | No inhibition | 49 ± 5 | 5.27 ± 0.41 | – | koff [6]: 0.754 s⁻¹; kon [6]: 3000 M⁻¹ s⁻¹; Kd [6, 18]: 252 µM; Kd [6, 19]: 267 µM
